The IC50 is the point on the concentration scale where inhibition reaches its midpoint. In general, inhibition refers to the relative decrease from the control value, in per cent. A lower inhibition goes with a weak effect.

The structures appear in SMILES notation. Activity calls are given as the source filed them. The calls are words filed in the database; no cut-off is given here.

This passage reports Activity, IC50 and inhibition results from ChEMBL document CHEMBL3351449, “Inhibition of FAAH, TRPV1, and COX2 by NSAID-serotonin conjugates” (Bioorg Med Chem Lett, 2014).

Assay [1] concerns the target T1, Transient receptor potential cation channel subfamily V member 1 (Homo sapiens, UniProt Q8NER1). Description: Inhibition of human TRPV1 overexpressed in BEAS-2B cells assessed as residual activity at 250 uM after 30 mins by Fluo-4 AM fluorescence assay. It is filed as cell-based.
Assay [2] has as its target T1, Transient receptor potential cation channel subfamily V member 1. Description: Inhibition of human TRPV1 overexpressed in BEAS-2B cells assessed as residual activity at 50 uM after 30 mins by Fluo-4 AM fluorescence assay. It is filed as cell-based.
Assay [3] addresses T2, Prostaglandin G/H synthase 2 (Homo sapiens, UniProt P35354).
T2 sequence (P35354 whole entry): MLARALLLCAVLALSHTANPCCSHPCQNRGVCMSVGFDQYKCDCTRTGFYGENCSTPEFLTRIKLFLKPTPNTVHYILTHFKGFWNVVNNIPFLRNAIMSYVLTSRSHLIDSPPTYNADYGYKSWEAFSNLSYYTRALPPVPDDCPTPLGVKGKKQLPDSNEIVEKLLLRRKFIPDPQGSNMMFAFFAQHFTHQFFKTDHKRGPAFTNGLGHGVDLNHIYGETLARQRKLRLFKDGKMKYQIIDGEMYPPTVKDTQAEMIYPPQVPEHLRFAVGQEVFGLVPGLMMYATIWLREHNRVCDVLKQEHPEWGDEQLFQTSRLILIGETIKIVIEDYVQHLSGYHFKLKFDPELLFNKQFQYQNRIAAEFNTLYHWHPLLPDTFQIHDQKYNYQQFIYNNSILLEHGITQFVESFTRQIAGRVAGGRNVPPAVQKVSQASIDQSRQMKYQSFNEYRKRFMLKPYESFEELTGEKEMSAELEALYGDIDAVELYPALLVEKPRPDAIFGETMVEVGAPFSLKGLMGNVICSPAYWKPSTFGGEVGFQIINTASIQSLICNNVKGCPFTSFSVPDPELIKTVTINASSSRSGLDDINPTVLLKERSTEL
Briefly: Inhibition of human recombinant COX2 assessed as inhibition of ADHP to fluorescent resorufin conversion by fluorescence assay.

The target in assay [4] is T1, Transient receptor potential cation channel subfamily V member 1. Description: Inhibition of human TRPV1 overexpressed in BEAS-2B cells assessed as calcium flux after 30 mins by Fluo-4 AM fluorescence assay. In kind it is cell-based. (In general: A change in cytosolic calcium serves as a functional read-out for many receptors and channels.)
Assay [5] addresses T3, Fatty-acid amide hydrolase 1 (Homo sapiens) (UniProt O00519).
T3 sequence (whole entry): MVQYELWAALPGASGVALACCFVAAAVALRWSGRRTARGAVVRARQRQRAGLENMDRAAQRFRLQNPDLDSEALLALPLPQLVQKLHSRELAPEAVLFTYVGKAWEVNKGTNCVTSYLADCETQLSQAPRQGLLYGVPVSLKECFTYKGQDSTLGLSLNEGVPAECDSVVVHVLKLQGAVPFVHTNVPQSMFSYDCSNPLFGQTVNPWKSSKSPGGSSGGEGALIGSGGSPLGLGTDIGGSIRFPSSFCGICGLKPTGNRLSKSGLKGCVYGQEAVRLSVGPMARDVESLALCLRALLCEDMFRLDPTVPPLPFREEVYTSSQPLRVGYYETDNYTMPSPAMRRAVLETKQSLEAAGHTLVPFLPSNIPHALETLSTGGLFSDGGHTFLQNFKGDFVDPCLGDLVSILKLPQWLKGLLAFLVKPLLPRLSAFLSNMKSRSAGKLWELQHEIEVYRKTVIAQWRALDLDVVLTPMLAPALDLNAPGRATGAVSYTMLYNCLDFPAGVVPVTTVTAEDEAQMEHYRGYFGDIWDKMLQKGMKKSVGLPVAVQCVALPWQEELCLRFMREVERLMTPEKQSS
Briefly: Inhibition of human recombinant FAAH using AMC arachidonoyl amide as substrate assessed as residual activity at 50 uM by fluorescence assay.

The target of assay [6] is T4, Prostaglandin G/H synthase 2 (Homo sapiens) (UniProt P35354).
T4 sequence (whole entry): T2 sequence (P35354 whole entry)
Briefly: Inhibition of human recombinant COX2 assessed as inhibition of ADHP to fluorescent resorufin conversion measured as residual activity at 10 uM by fluorescence assay.

For assay [7], the target named is T3, Fatty-acid amide hydrolase 1 (Homo sapiens). Description: Inhibition of human recombinant FAAH using AMC arachidonoyl amide as substrate assessed as residual activity at 10 uM by fluorescence assay.
In assay [8] the target is T5, Fatty-acid amide hydrolase 1 (Homo sapiens, UniProt O00519).
T5 sequence (O00519 whole entry): T3 sequence (whole entry)
Description: Inhibition of human recombinant FAAH using AMC arachidonoyl amide as substrate by fluorescence assay.

Assay [9] deals with T1, Transient receptor potential cation channel subfamily V member 1. Briefly: Inhibition of human TRPV1 overexpressed in BEAS-2B cells at 10 uM after 30 mins by Fluo-4 AM fluorescence assay. It is filed as cell-based.
Assay [10] has the same target. Description: Stimulation of human TRPV1 overexpressed in BEAS-2B cells at >10 uM after 30 mins by Fluo-4 AM fluorescence assay. It is filed as cell-based.

T1 sequence (Q8NER1 whole entry): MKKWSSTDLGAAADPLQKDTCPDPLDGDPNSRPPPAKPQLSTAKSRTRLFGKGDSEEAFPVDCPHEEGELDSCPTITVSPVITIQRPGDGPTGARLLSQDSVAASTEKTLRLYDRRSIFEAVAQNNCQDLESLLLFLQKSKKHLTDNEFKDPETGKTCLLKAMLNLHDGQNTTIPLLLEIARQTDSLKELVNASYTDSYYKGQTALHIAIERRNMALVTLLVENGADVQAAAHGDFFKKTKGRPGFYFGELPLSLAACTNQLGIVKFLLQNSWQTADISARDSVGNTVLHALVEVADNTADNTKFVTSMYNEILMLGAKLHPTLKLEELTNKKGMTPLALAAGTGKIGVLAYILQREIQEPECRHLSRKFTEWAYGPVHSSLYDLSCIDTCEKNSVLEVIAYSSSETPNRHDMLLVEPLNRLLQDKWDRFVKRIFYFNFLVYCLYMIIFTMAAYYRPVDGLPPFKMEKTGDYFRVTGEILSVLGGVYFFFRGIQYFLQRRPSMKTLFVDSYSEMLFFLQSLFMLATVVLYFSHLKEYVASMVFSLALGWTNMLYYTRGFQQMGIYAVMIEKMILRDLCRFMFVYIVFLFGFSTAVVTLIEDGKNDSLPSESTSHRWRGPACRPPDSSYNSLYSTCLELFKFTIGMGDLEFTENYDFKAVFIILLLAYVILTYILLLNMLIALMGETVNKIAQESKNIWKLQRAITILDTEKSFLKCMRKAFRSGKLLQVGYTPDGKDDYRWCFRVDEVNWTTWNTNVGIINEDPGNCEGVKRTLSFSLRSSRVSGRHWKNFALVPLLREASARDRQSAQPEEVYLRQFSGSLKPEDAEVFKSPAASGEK

In the case of `COc1ccc2c(c1)c(CC(=O)O)c(C)n2C(=O)c1ccc(Cl)cc1`, the Activity was 82% in assay [1] and 98% in [2].
The matching figures for `CC(C)Cc1ccc(C(C)C(=O)O)cc1` (stereo unspecified): 112% and 103%.
As for `CC(C(=O)NCCc1c[nH]c2ccc(O)cc12)c1cccc(Oc2ccccc2)c1` (stereo unspecified), the concentration for half-maximal inhibition (IC50) stood at 7 µM in assay [3] and 8 µM in [4]. The Activity in assay [5] worked out at 105%; in assay [6], 49%.
Regarding `CC(C(=O)O)c1cccc(C(=O)c2ccccc2)c1` (stereo unspecified), the Activity in assay [1] came to 108%; in [2], 103%.
On to `CC(C(=O)NCCc1c[nH]c2ccc(O)cc12)c1cccc(C(=O)c2ccccc2)c1` (stereo unspecified), for which the IC50 in assay [4] came to 45 µM. In addition, the Activity came out at 88% in [7] and 51% in assay [6].
Take `CC(C(=O)O)c1cccc(Oc2ccccc2)c1` (stereo unspecified): the Activity was determined as 121% in assay [1] and 104% in assay [2].
In the same order, the values of `O=C(c1ccccc1)c1ccc2n1CCC2C(=O)O` (stereo unspecified) are 110% and 96%.
`O=C(c1ccccc1)c1ccc2n1CCC2C(=O)NCCc1c[nH]c2ccc(O)cc12` (stereo unspecified): the 50% inhibitory concentration (IC50) in [4] is 70 µM. The results for the Activity in [7] and in assay [6] were 98% and 43%, respectively.
As for `CCCCC/C=C\C/C=C\C/C=C\C/C=C\CCCC(=O)NCCc1c[nH]c2ccc(O)cc12`, the 50% inhibitory concentration (IC50) in [3] was found to be 5 µM; in assay [4], 10 µM; in [8], 16 µM. Also, the values for the Activity in assay [7] and in assay [6] were 78% and 66%, respectively.
For `CC(=O)Oc1ccccc1C(=O)NCCc1c[nH]c2ccc(O)cc12`, the half-maximal inhibitory concentration (IC50) in assay [4] stood at 203 µM. Further, the Activity in [7] amounted to 99%; in [6], 60%.
As to `CC(C(=O)NCCc1c[nH]c2ccc(O)cc12)c1ccc(-c2ccccc2)c(F)c1` (stereo unspecified), the figures for the IC50 in assay [3], in [4] and in [8] were 8 µM, 9 µM and 15 µM, respectively. The Activity in assay [7] was 85%; in assay [6] it was 38%.
For `O=C(O)c1ccccc1Nc1cccc(C(F)(F)F)c1`, the values for the Activity in assay [1] and in [2] were 36% and 66%, respectively.
In the same order, the values of `COc1ccc2cc([C@H](C)C(=O)O)ccc2c1` are 109% and 107%.
As to `COc1ccc2c(c1)c(CC(=O)NCCc1c[nH]c3ccc(O)cc13)c(C)n2C(=O)c1ccc(Cl)cc1`, the IC50 in [4] is 48 µM. In addition, the Activity worked out at 94% in assay [7] and 7% in [6].
The matching figures for `O=C(NCCc1c[nH]c2ccc(O)cc12)c1ccccc1O`: 70 µM, 101% and 51%.
Consider `CC(C(=O)O)c1ccc(-c2ccccc2)c(F)c1` (stereo unspecified), for which the Activity amounted to 108% in [1] and 103% in [2].
Regarding `COc1ccc2cc([C@H](C)C(=O)NCCc3c[nH]c4ccc(O)cc34)ccc2c1`, the IC50 in assay [3] is 18 µM; in assay [4], 13 µM. Also, the Activity in assay [5] turned out to be 73%; in [6], 48%.
As for `O=C(Cc1ccccc1Nc1c(Cl)cccc1Cl)NCCc1c[nH]c2ccc(O)cc12`, in [4], the half-inhibitory concentration (IC50) amounted to 19 µM. For the same compound, the Activity in assay [7] turned out to be 98%; in assay [6], 43%.
In the case of `CC(C)Cc1ccc(C(C)C(=O)NCCc2c[nH]c3ccc(O)cc23)cc1` (stereo unspecified), the half-inhibitory concentration (IC50) came out at 10 µM in [3], 6 µM in [4] and 5 µM in assay [8]. Further, the Activity is 75% in assay [7] and 42% in assay [6].
`O=C(NCCc1c[nH]c2ccc(O)cc12)c1ccccc1Nc1cccc(C(F)(F)F)c1`: the inhibition in assay [9] turned out to be 40%. For the same compound, in [4], the IC50 is 10 µM. Further, the Activity in assay [7] was found to be 107%; in [6], 38%. The result in assay [10] was Active.
Consider `O=C(O)Cc1ccccc1Nc1c(Cl)cccc1Cl`, for which the Activity in assay [1] amounted to 49%; in assay [2], 61%.
The matching figures for `CC(=O)Oc1ccccc1C(=O)O`: 91% and 84%.
